Laboratory results from BindingDB's records for doi:10.1021/jm050680m (Johnson & Johnson Pharmaceutical Research and Development, 2005).
pIC50: −log10 of the molar value.

Tests used:
[1] = Antiproliferative activity against PDGF-BB stimulated HCASMC
[2] = as above; remark: listed apart in the source

| pIC50 [1] | pIC50 [2] | Compound |
| --- | --- | --- |
| – | 7.49 | COc1cc2c(cc1OC)-c1n[nH]c(Nc3cccc(Br)c3)c1C2 [3-bromo-N-(6,7-dimethoxy-2,4-dihydroindeno[1,2-c]pyrazol-3-yl)phenylamine] |
| 7.96 | – | COC(=O)c1cccc(Nc2[nH]nc3c2Cc2cc(OC)c(OC)cc2-3)c1 [3-carbomethoxy-N-(6,7-dimethoxy-2,4-dihydroindeno[1,2-c]pyrazol-3-yl)phenylamine] |
| 8.52 | – | COc1cc2c(cc1OC)-c1n[nH]c(Nc3cccc(F)c3)c1C2 [JNJ-10198409] |

The remaining lines, values behind:

| Compound | pIC50 [1] | pIC50 [2] |
| --- | --- | --- |
| COc1cc2c(cc1OC)-c1n[nH]c(Nc3cccc(C(F)(F)F)c3)c1C2 [3-trifluoromethyl-N-(6,7-dimethoxy-2,4-dihydroindeno[1,2-c]pyrazol-3-yl)phenylamine] | 9.00 | – |
| COc1cccc2c1Cc1c-2n[nH]c1Nc1ccccc1 [(5-methoxy-2,4-dihydroindeno[1,2-c]pyrazol-3-yl)phenylamine] | 6.31 | – |
